Test results from article PMC3127977, “No relevant cardiac, pharmacokinetic or safety interactions between roflumilast and inhaled formoterol in healthy subjects: an open-label, randomised, actively controlled study” (BMC Clinical Pharmacology, 2011).

What was measured:
healthy subjects = experiment: Transthoracic impedance cardiography (ZCG) and systolic time intervals in healthy men; oral roflumilast 500 μg once daily, inhaled formoterol 24 μg twice daily; conditions: Regimen A
Method: For Regimen A, subjects received 500 μg oral roflumilast once daily (daily dose: one tablet of roflumilast 500 μg) from the morning of Day 2 to the morning of Day 18. […] For Regimen B, subjects received 24 μg formoterol for oral inhalation delivered by a DPI device (Foradil® P) twice daily, once in the morning and once in the evening from the morning of Day 2 to the evening of Day 18.
Cardiovascular effects were evaluated non-invasively by means of ECGs (cardiac rhythm, intra-cardiac conduction and ventricular repolarisation), oscillometric blood pressure and transthoracic impedance cardiography (ZCG; systolic time intervals, contractility indices and estimates of stroke volume and cardiac output). Cardiovascular assessments (oscillometric blood pressure, pulse rate, 12-lead ECG, and three-lead ZCG) were recorded before dosing and at 10, 20, 40 and 60 minutes, and at 2, 3, 4, 5, 6, 7 and 8 hours after morning dosing. […] All cardiovascular measurements were carried out after the subjects had been recumbent for at least 10 minutes; they generally stayed in bed from 1 hour before until 8 hours after morning dosing.
Systolic time intervals (STIs) and ZCG estimates of the systolic cardiac pump performance were derived from the simultaneous registration of a one-lead ECG, a phonocardiogram (PCG), and the rate of change of the transthoracic impedance (dZ/dt) to an AC current applied through the thoracic cage (CARDIODYNAGRAPH; Diefenbach GmbH, Wiesbaden, Germany). Tracings were captured and stored digitally during the study and subsequently analysed after the study by displaying the analogue ECG, PCG and ZCG signals on a computer screen. The relevant signal amplitudes and time intervals were delineated manually by operator-steered cursors; measurements were made for at least 10 artefact-free consecutive cardiac cycles. From these tracings, the following variables were derived by direct measurement: RR interval (ms), total electromechanic systole (QS2 [ms]), ventricular ejection time (VET [ms]), baseline transthoracic impedance (Z0 [Ω]), and maximum negative velocity of transthoracic impedance changes during the cardiac cycle (dZ/dtmax [Ω/s]). These variables were analysed for the 10 cycles and their means were used in the calculations of the following variables: heart rate (HR [bpm]), pre-ejection period (PEP [ms] = QS2 - VET), HR-corrected STIs (STIc and STIi according to Weissler et al.), ZCG estimates of stroke volume (SV [mL] according to Kubicek's equation [37] using the equation of Geddes and Sadler for the specific resistance of blood), cardiac output (CO [mL/min]), and total peripheral resistance (TPR [dyn.s.cm^-5]). For the latter variable, the mean blood pressure (MBP [mmHg]) was used as calculated according to Wezler and Böger from the systolic blood pressure (mmHg) and the diastolic blood pressure (mmHg).
ZCG analysis was carried out by a single analyst who was blinded with regard to subject, study regimen, profiling day within regimen, and time during the day.

[1] = Serum glucose concentration on profiling days; conditions: Regimen A, Day 11
Description: (§1) During the main profiling days, blood was sampled at each ZCG time point for the determination of serum glucose and potassium concentrations.

[2] = Serum potassium concentration on profiling days; conditions: Regimen A, Day 11
Description: as §1

- CO, Day 1-matched post-dose maximum dmax (δ), median (healthy subjects; Day 11 (R)): 1.6 L/min
- CO, Day 1-matched post-dose minimum dmin (δ), median (healthy subjects; Day 11 (R)): -1.7 L/min
- CO, untransformed post-dose maximum dmax (U), median (healthy subjects; Day 11 (R)): 10.6 L/min
- CO, untransformed post-dose minimum dmin (U), median (healthy subjects; Day 11 (R)): 8.3 L/min
- CO, untransformed pre-dose morning value, median (healthy subjects; Day 11 (R)): 9.1 L/min
- HR, Day 1-matched post-dose maximum dmax (δ), median (healthy subjects; Day 11 (R)): 9 bpm
- HR, Day 1-matched post-dose minimum dmin (δ), median (healthy subjects; Day 11 (R)): -4 bpm
- HR, untransformed post-dose maximum dmax (U), median (healthy subjects; Day 11 (R)): 64 bpm
- HR, untransformed post-dose minimum dmin (U), median (healthy subjects; Day 11 (R)): 54 bpm
- HR, untransformed pre-dose morning value, median (healthy subjects; Day 11 (R)): 63 bpm
- PEP, Day 1-matched post-dose maximum dmax (δ), median (healthy subjects; Day 11 (R)): 25 ms
- PEP, Day 1-matched post-dose minimum dmin (δ), median (healthy subjects; Day 11 (R)): -27 ms
- PEP, untransformed post-dose maximum dmax (U), median (healthy subjects; Day 11 (R)): 121 ms
- PEP, untransformed post-dose minimum dmin (U), median (healthy subjects; Day 11 (R)): 86 ms
- PEP, untransformed pre-dose morning value, median (healthy subjects; Day 11 (R)): 94 ms
- QS2, Day 1-matched post-dose maximum dmax (δ), median (healthy subjects; Day 11 (R)): 19 ms
- QS2, Day 1-matched post-dose minimum dmin (δ), median (healthy subjects; Day 11 (R)): -34 ms
- QS2, untransformed post-dose maximum dmax (U), median (healthy subjects; Day 11 (R)): 454 ms
- QS2, untransformed post-dose minimum dmin (U), median (healthy subjects; Day 11 (R)): 410 ms
- QS2, untransformed pre-dose morning value, median (healthy subjects; Day 11 (R)): 423 ms
- TPR, Day 1-matched post-dose maximum dmax (δ), median (healthy subjects; Day 11 (R)): 126 dyn.s.cm^-5
- TPR, Day 1-matched post-dose minimum dmin (δ), median (healthy subjects; Day 11 (R)): -128 dyn.s.cm^-5
- TPR, untransformed post-dose maximum dmax (U), median (healthy subjects; Day 11 (R)): 934 dyn.s.cm^-5
- TPR, untransformed post-dose minimum dmin (U), median (healthy subjects; Day 11 (R)): 733 dyn.s.cm^-5
- TPR, untransformed pre-dose morning value, median (healthy subjects; Day 11 (R)): 838 dyn.s.cm^-5
- dZ/dt, Day 1-matched post-dose maximum dmax (δ), median (healthy subjects; Day 11 (R)): 0.28 Ω/s
- dZ/dt, Day 1-matched post-dose minimum dmin (δ), median (healthy subjects; Day 11 (R)): -0.10 Ω/s
- dZ/dt, untransformed post-dose maximum dmax (U), median (healthy subjects; Day 11 (R)): 1.93 Ω/s
- dZ/dt, untransformed post-dose minimum dmin (U), median (healthy subjects; Day 11 (R)): 1.56 Ω/s
- dZ/dt, untransformed pre-dose morning value, median (healthy subjects; Day 11 (R)): 1.67 Ω/s
- CO, dmax (U), point estimate (95% CI) of difference between days (healthy subjects; Day 11-Day 1): 0.2 (-1.1 to 1.4) L/min
- CO, dmin (U), point estimate (95% CI) of difference between days (healthy subjects; Day 11-Day 1): -0.4 (-1.2 to 0.4) L/min
- CO, untransformed pre-dose morning value, point estimate (95% CI) of difference between days (healthy subjects; Day 11-Day 1): -0.6 (-1.7 to 0.5) L/min
- HR, dmax (U), point estimate (95% CI) of difference between days (healthy subjects; Day 11-Day 1): 3 (-4 to 6) bpm
- HR, dmin (U), point estimate (95% CI) of difference between days (healthy subjects; Day 11-Day 1): 4 (1 to 7) bpm
- HR, untransformed pre-dose morning value, point estimate (95% CI) of difference between days (healthy subjects; Day 11-Day 1): 3 (-5 to 8) bpm
- PEP, dmax (U), point estimate (95% CI) of difference between days (healthy subjects; Day 11-Day 1): 3 (-7 to 11) ms
- PEP, dmin (U), point estimate (95% CI) of difference between days (healthy subjects; Day 11-Day 1): 0 (-9 to 13) ms
- PEP, untransformed pre-dose morning value, point estimate (95% CI) of difference between days (healthy subjects; Day 11-Day 1): -3 (-17 to 10) ms
- QS2, dmax (U), point estimate (95% CI) of difference between days (healthy subjects; Day 11-Day 1): -1 (-11 to 11) ms
- QS2, dmin (U), point estimate (95% CI) of difference between days (healthy subjects; Day 11-Day 1): -9 (-21 to 8) ms
- QS2, untransformed pre-dose morning value, point estimate (95% CI) of difference between days (healthy subjects; Day 11-Day 1): -10 (-21 to 2) ms
- TPR, dmax (U), point estimate (95% CI) of difference between days (healthy subjects; Day 11-Day 1): 47 (-124 to 178) dyn.s.cm^-5
- TPR, dmin (U), point estimate (95% CI) of difference between days (healthy subjects; Day 11-Day 1): -18 (-96 to 43) dyn.s.cm^-5
- TPR, untransformed pre-dose morning value, point estimate (95% CI) of difference between days (healthy subjects; Day 11-Day 1): 14 (-98 to 121) dyn.s.cm^-5
- dZ/dt, dmax (U), point estimate (95% CI) of difference between days (healthy subjects; Day 11-Day 1): -0.05 (-0.25 to 0.15) Ω/s
- dZ/dt, dmin (U), point estimate (95% CI) of difference between days (healthy subjects; Day 11-Day 1): 0.03 (-0.18 to 0.20) Ω/s
- dZ/dt, untransformed pre-dose morning value, point estimate (95% CI) of difference between days (healthy subjects; Day 11-Day 1): -0.06 (-0.29 to 0.16) Ω/s
- median pre-dose serum glucose [1]: 4.75 mmol/L
- median pre-dose serum potassium level [2]: 4.16 mmol/L
Compound: O=C(Nc1c(Cl)cncc1Cl)c1ccc(OC(F)F)c(OCC2CC2)c1 [Roflumilast, 3-cyclopropylmethoxy-N-(3,5-dichloropyridin-4-yl)-4-(difluoromethoxy)benzamide]
- effect on cardiovascular function (ZCG/STI variables) (healthy subjects; roflumilast alone): little effect
